Assay results taken from patent publication US20200172473A1, “DUAL MODULATORS OF FARNESOID X RECEPTOR AND SOLUBLE EPOXIDE HYDROLASE” (JOHANN WOLFGANG GOETHE-UNIVERSITÄT FRANKFURT AM MAIN, priority 2017, published 2020).
≈ marks a conversion by molar mass, not a printed value.

Tests used:
LXRβ = molecular target: T1, LXRβ (Homo sapiens, UniProt P55055); assay: Gal4-hybrid reporter gene assay LXRβ in HEK293T cells; format: cell-based; details: 10 μM; printed as both LXR subtypes
T1 construct: pFA-CMV-hLXRβ-LBD; expressed in transfected cells; host or cells: HEK293T
T1 sequence (P55055 222-460 limits assumed): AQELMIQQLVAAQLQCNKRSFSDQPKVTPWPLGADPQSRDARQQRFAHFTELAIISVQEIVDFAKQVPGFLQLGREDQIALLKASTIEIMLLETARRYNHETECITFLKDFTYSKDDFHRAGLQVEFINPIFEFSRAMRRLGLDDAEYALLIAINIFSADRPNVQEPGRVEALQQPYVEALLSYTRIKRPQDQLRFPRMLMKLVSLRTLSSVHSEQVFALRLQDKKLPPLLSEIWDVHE
Source text: (§1) Hybrid reporter gene assays for PPARα/γ/δ, LXRα/β, RXRα/β/γ, RARα/β/γ, VDR and PXR Plasmids: The Gal4-fusion receptor plasmids pFA-CMV-hPPARα-LBD^52, pFA-CMV-hPPARγ-LBD^52, pFA-CMV-hPPARδ-LBD^52, pFA-CMV-hLXRα-LBD^32 and pFA-CMV-hLXRβ-LBD^32 have been reported previously. […] Frame and sequence of all fusion receptors were verified by sequencing. pFR-Luc (Stratagene) was used as reporter plasmid and pRL-SV40 (Promega) for normalization of transfection efficiency and cell growth.
(§2) Assay procedure: HEK293T cells were grown in DMEM high glucose, supplemented with 10% FCS, sodium pyruvate (1 mM), penicillin (100 U/mL) and streptomycin (100 μg/mL) at 37° C. and 5% CO2. The day before transfection, HEK293T cells were seeded in 96-well plates (2.5·10^4 cells/well). Before transfection, medium was changed to Opti-MEM without supplements. Transient transfection was carried out using Lipofectamine LTX reagent (Invitrogen) according to the manufacturer's protocol with pFR-Luc (Stratagene), pRL-SV40 (Promega) and pFA-CMV-hRXRα-LBD. 5 h after transfection, medium was changed to Opti-MEM supplemented with penicillin (100 U/mL), streptomycin (100 μg/mL), now additionally containing 0.1% DMSO and the respective test compound or 0.1% DMSO alone as untreated control. […] Luminescence was measured with an Infinite M200 luminometer (Tecan Deutschland GmbH). […]

FXR target genes = assay: FXR target gene mRNA quantification from mouse livers; format: in vivo; details: 10 mg/kg p.o., 8 h post dose
Procedure: Three additional animals served as vehicle control.
A part of the blood was centrifuged (6000 rpm, 10 min, +4° C.) to obtain plasma for quantification of EET/DHET ratio and stored at −80° C. until further evaluation. For liver collection, mice were sacrificed by cervical dislocation after the last blood sampling (8 h post dose). Complete liver was immediately snap-frozen and stored at −80° C. until further evaluation. Plasma and liver were equally obtained from three control mice which received oral application of the vehicle (1% HPMC/Tween 80 (99:1)).
Quantification of FXR target gene mRNA from mouse livers: Hepatocyte isolation of mouse liver tissue for RT-qPCR: To homogenize the liver samples, one third of each liver was placed on one Falcon™ Cell Strainer with 40 μm pore size (BD Bioscience, Erembodegem, Belgium) in a 50 mL Falcon tube. Every tissue was rinsed with PBS buffer containing 10% FCS and 1% PenStrep and pressed through the cell strainer until 5 mL cell suspension had been collected. The samples were centrifuged at 1200 rpm for to min at 4° C. The supernatant was discarded and the pellets were washed with 5 mL cold PBS buffer and again centrifuged at 1200 rpm for 10 min at 4° C. After discarding the supernatant, the cell pellets were re-suspended in 1 mL PBS and total RNA was extracted using the E. Z. A. Total RNA Kit I (Omega bio-tek Inc., Narcoss, Ga., USA) following the Animal Tissue Protocol. The extracted RNA was used for qRT-PCR and equally treated as described for mRNA quantification from HepG2 cells (see above). PCR primers for the murine genes are listed in the supporting information.

[1] = system: PPARγ target genes CD36 and FAM3A; assay: PPARγ target gene mRNA quantification (qRT-PCR) in HepG2 cells; format: cell-based; details: HepG2, 1 μM
PPARδ = molecular target: T2, PPARδ (Homo sapiens, UniProt Q03181); assay: Gal4-hybrid reporter gene assay PPARδ in HEK293T cells; format: cell-based; details: 10 μM
T2 construct: pFA-CMV-hPPARδ-LBD; expressed in transfected cells; host or cells: HEK293T
T2 sequence (Q03181 211-439 limits assumed): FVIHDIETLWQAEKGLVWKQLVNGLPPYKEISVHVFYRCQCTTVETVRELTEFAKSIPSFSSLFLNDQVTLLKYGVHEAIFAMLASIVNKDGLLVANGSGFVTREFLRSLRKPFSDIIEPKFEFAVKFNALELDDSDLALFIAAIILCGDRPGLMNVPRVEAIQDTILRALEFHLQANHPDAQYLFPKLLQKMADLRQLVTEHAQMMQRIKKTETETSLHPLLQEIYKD
Source text: as §1, §2

PPARγ target gene FATP = PPARγ target gene FATP mRNA quantification from mouse livers; format: in vivo; details: 10 mg/kg p.o., 8 h post dose; vehicle 101±1
aqueous solubility = format: physicochemical; details: LLOQ 0.1 μg/mL

## CC(C)(C)c1ccc(C(=O)NCc2ccc(NS(C)(=O)=O)cc2Cl)cc1 [compound 57, 4-(tert-Butyl)-N-(2-chloro-4-(methylsulfonamido)benzyl)benzamide]
LXRβ
  activity on LXRβ: inactive
FXR target genes
  increased expression of BSEP in mouse liver: approx. 3 fold
  increased expression of FGF15 in mouse liver: approx. 2.5 fold
  increased expression of SHP in mouse liver: approx. 4 fold
  reduced SREBP1c levels in mouse liver: approx. 5 fold
FXR target genes; vehicle 82±14
  SREBP1c mRNA in mouse liver compared to vehicle set as 100%: 17±10%
FXR target genes; vehicle 105±24
  BSEP mRNA in mouse liver compared to vehicle set as 100%: 312±103%
FXR target genes; vehicle 108+29
  SHP mRNA in mouse liver compared to vehicle set as 100%: 410±147%
FXR target genes; vehicle 119±15
  FGF15 mRNA in mouse liver compared to vehicle set as 100%: 254±9%
[1]
  CD36 mRNA expression compared to vehicle set as 100%: 119±33%
  FAM3A mRNA expression compared to vehicle set as 100%: 112±12%
PPARδ
  activity on PPARδ: inactive
PPARγ target gene FATP
  FATP mRNA in mouse liver compared to vehicle set as 100%: not affected
Aqueous solubility
  aqueous solubility: 1.5 µg/mL (≈ 3.8 µM)
